According to US20240368139A1, “NOVEL MODULATORS OF EHMT1 AND EHMT2 AND THERAPEUTIC USE THEREOF” (Tango Therapeutics, Inc., priority 2021, published 2024):

Assays:
[1] = system: H3K9me2 in HCT116 cells; experiment: HCT116 H3K9me2 in-cell western assay; assay type: cell-based; conditions: Homo sapiens, HCT-116, 72 h, HCT116 cells, 72 hours incubation; read-out: H3K9me2 ICW IC50
How it was run: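 HCT116 cells (2,000/well) were treated for 72 h at 37° C, 5% CO2, with ten two-fold dilutions from 10 μM in duplicate. After PFA fixation, cells were stained overnight at 4° C with anti-H3K9me2, then with an 800 CW secondary plus DRAQ5.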

[2] = molecular target: T1, human EHMT1 982-1266 (Homo sapiens, UniProt Q9H9B1); experiment: EHMT1 enzyme assay on histone peptide substrate (3H-SAM SPA); conditions: EHMT1 IC50, recombinant human EHMT1 982-1266, histone peptide substrate
T1 sequence (Q9H9B1 982-1266): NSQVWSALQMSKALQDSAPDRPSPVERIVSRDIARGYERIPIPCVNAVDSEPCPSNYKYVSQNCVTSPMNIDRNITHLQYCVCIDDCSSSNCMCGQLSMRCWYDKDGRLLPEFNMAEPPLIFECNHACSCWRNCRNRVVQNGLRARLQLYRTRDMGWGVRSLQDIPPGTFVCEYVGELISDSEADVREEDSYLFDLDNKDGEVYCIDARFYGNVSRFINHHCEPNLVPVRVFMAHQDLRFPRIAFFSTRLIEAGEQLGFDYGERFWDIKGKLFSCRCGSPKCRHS

[3] = molecular target: T2, human EHMT2 913-1193 (Homo sapiens, UniProt Q96KQ7); experiment: EHMT2 enzyme assay on histone peptide substrate (3H-SAM SPA); conditions: EHMT2 IC50, recombinant human EHMT2 913-1193, histone peptide substrate
T2 sequence (Q96KQ7 913-1193): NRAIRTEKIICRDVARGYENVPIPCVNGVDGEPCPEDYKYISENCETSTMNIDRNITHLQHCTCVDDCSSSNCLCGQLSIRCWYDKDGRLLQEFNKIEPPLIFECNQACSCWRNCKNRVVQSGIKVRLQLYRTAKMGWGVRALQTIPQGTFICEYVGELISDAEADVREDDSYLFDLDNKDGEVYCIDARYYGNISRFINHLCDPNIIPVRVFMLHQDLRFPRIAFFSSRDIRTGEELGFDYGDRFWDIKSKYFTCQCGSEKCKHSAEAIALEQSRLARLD

Row | IC50 [1] [nM] | IC50 [2] [nM] | IC50 [3] [nM] | SMILES
1 | 100 to 500 | 100 to 500 | 500 to 2000 | CNc1nc(Nc2cc3c(c(C4=CCN(C)CCC4)c2F)OCC3)nc(C)c1Cl [Compound 215]
2 | < 100 | < 100 | < 100 | [2H]C([2H])([2H])CNc1cc(C)nc(Nc2cc3c(c(C4=CCN(C)CCC4)c2F)OCC3)n1 [Compound 217]
3 | 100 to 500 | 100 to 500 | 500 to 2000 | [2H]Cc1nc(Nc2cc3c(c(C4=CCN(C)CCC4)c2)OCC3)nc(NC)c1F [Compound 218]
4 | < 100 | 100 to 500 | 100 to 500 | [2H]Cc1nc(Nc2cc3c(c(C4=CCN(C)CCC4)c2F)OCC3)nc(NC([2H])([2H])[2H])c1F [Compound 219]
5 | 100 to 500 | 100 to 500 | 500 to 2000 | [2H]Cc1nc(Nc2cc3c(c(C4=CCN(C)CCC4)c2)OCC3)nc(NC([2H])([2H])[2H])c1F [Compound 220]
6 | < 100 | 100 to 500 | 500 to 2000 | [2H]Cc1nc(Nc2cc3c(c(C4=CCN(C)CCC4)c2F)OCC3)nc(NC)c1F [Compound 221]
7 | 100 to 500 | 100 to 500 | 500 to 2000 | [2H]Cc1nc(Nc2cc3c(c(C4=CCN(C)CCC4)c2F)OCC3)nc(NCC([2H])([2H])[2H])c1F [Compound 222]
8 | < 100 | < 100 | < 100 | CNc1nc(Nc2cc3c(c(C4=CCNCCC4)c2F)OCC3)nc(C)c1C [Compound 223, N2-[6-fluoro-7-(2,3,4,7-tetrahydro-1H-azepin-5-yl)-2,3-dihydrobenzofuran-5-yl]-N4,5,6-trimethyl-pyrimidine-2,4-diamine]
9 | < 100 | < 100 | < 100 | CNc1nc(Nc2cc3c(c(C4=CCNCCC4)c2F)OCC3)nc(C)c1Cl [Compound 224]
10 | < 100 | < 100 | < 100 | [2H]Cc1nc(Nc2cc3c(c(C4=CCNCCC4)c2F)OCC3)nc(NC([2H])([2H])[2H])c1F [Compound 225]
11 | 100 to 500 | < 100 | 100 to 500 | [2H]Cc1nc(Nc2cc3c(c(C4=CCNCCC4)c2F)OCC3)nc(NCC([2H])([2H])[2H])c1F [Compound 226]
12 | < 100 | < 100 | < 100 | [2H]C([2H])([2H])N1CC=C(c2c(F)c(Nc3nc(C)cc(NC)n3)cc3c2OCC3)CCC1 [Compound 227]
13 | 100 to 500 | < 100 | 100 to 500 | [2H]C([2H])([2H])Nc1nc(Nc2cc3c(c(C4=CCN(C)CCC4)c2F)OCC3)nc(C)c1F [Compound 228]
14 | 100 to 500 | < 100 | 100 to 500 | [2H]Cc1nc(Nc2cc3c(c(C4=CCNCCC4)c2)OCC3)nc(NC)c1F [Compound 229]
15 | 100 to 500 | < 100 | 100 to 500 | [2H]Cc1cc(NC([2H])([2H])[2H])nc(Nc2cc3c(c(C4=CCN(C)CCC4)c2)OCCO3)n1 [Compound 230]
16 | < 100 | < 100 | < 100 | [2H]C([2H])([2H])CNc1cc(C)nc(Nc2cc3c(c(C4=CCNCCC4)c2F)OCC3)n1 [Compound 231]
17 | 100 to 500 | 100 to 500 | 100 to 500 | [2H]Cc1nc(Nc2cc3c(c(C4=CCNCCC4)c2)OCC3)nc(NC([2H])([2H])[2H])c1F [Compound 232]
18 | 500 to 2000 | 100 to 500 | 500 to 2000 | [2H]Cc1nc(Nc2cc3c(c(C4=CCNCCC4)c2)OCO3)nc(NCC([2H])([2H])[2H])c1F [Compound 233]
19 | < 100 | < 100 | < 100 | [2H]Cc1cc(NC([2H])([2H])[2H])nc(Nc2cc3c(c(C4=CCN(C)CCC4)c2F)OCC3)n1 [Compound 234]
20 | < 100 | < 100 | < 100 | [2H]Cc1nc(Nc2cc3c(c(C4=CCNCCC4)c2F)OCC3)nc(NC)c1F [Compound 235]
21 | 100 to 500 | < 100 | 100 to 500 | CNc1cc(Nc2cc3c(c(C4=CCN(C)CCC4)c2F)OCCC3)nc(C)c1F [Compound 236]
22 | 100 to 500 | 100 to 500 | 500 to 2000 | [2H]Cc1nc(Nc2cc3c(c(C4=CCNCCC4)c2)OCC3)nc(NCC([2H])([2H])[2H])c1F [Compound 237]
23 | < 100 | < 100 | < 100 | [2H]C([2H])([2H])Nc1cc(C)nc(Nc2cc3c(c(C4=CCN(C)CCC4)c2F)OCC3)n1 [Compound 238]

Row | IC50 [1] [nM] | IC50 [2] [nM] | IC50 [3] [nM] | SMILES
24 | 100 to 500 | < 100 | 100 to 500 | CCNc1nc(Nc2cc3c(c(C4=CCNCCC4)c2F)OCC3)nc(C)c1F [Compound 239]
25 | 100 to 500 | 100 to 500 | 100 to 500 | [2H]Cc1nc(Nc2cc3c(c(C4=CCNCCC4)c2)OCO3)nc(NC([2H])([2H])[2H])c1F [Compound 240]
26 | 100 to 500 | 100 to 500 | 500 to 2000 | CCNc1nc(Nc2cc3c(c(C4=CCN(C)CCC4)c2F)OCC3)nc(C)c1F [Compound 241]
27 | < 100 | < 100 | < 100 | CNc1nc(Nc2cc3c(c(C4=CCNCCC4)c2F)OCC3)nc(C)c1F [Compound 242]
28 | < 100 | < 100 | < 100 | CNc1cc(Nc2cc3c(c(C4=CCNCCC4)c2F)OCCC3)nc(C)c1F [Compound 243]
29 | 100 to 500 | < 100 | 100 to 500 | [2H]C([2H])([2H])CNc1cc(C)nc(Nc2cc3c(c(C4=CCN(C)CCC4)c2)OCO3)n1 [Compound 244]
30 | 100 to 500 | 100 to 500 | 500 to 2000 | CNc1nc(Nc2cc3c(c(C4=CCN(C)CCC4)c2F)OCC3)nc(C)c1F [Compound 245]
31 | < 100 | < 100 | < 100 | [2H]C([2H])([2H])CNc1cc(C)nc(Nc2cc3c(c(C4=CCNCCC4)c2)OCO3)n1 [Compound 246]
32 | 100 to 500 | 100 to 500 | 100 to 500 | CNc1cc(CC(F)(F)F)nc(Nc2cc3c(c(C4=CCNCCC4)c2)OCC3)c1 [Compound 247]
33 | < 100 | < 100 | < 100 | [2H]Cc1cc(NC)nc(Nc2cc3c(c(C4=CCNCCC4)c2)OCCC3)n1 [Compound 248]
34 | < 100 | < 100 | < 100 | [2H]Cc1cc(NC([2H])([2H])[2H])nc(Nc2cc3c(c(C4=CCNCCC4)c2)OCCC3)n1 [Compound 250]
35 | < 100 | < 100 | < 100 | [2H]Cc1cc(NC([2H])([2H])[2H])nc(Nc2cc3c(c(C4=CCN(C)CCC4)c2)OCCC3)n1 [Compound 251]
36 | < 100 | < 100 | < 100 | [2H]Cc1cc(NC([2H])([2H])[2H])nc(Nc2cc3c(c(C4=CCNCCC4)c2)OCO3)n1 [Compound 252]
37 | < 100 | < 100 | < 100 | [2H]Cc1cc(NC([2H])([2H])[2H])nc(Nc2cc3c(c(C4=CCN(C)CCC4)c2)OCO3)n1 [Compound 254]
38 | < 100 | < 100 | < 100 | CNc1cc(Nc2cc3c(c(C4=CCN(C)CCC4)c2F)OCC3)nc(C)c1F [Compound 255]
39 | < 100 | < 100 | < 100 | [2H]C([2H])([2H])Nc1nc(Nc2cc3c(c(C4=CCNCCC4)c2F)OCC3)nc(C)c1F [Compound 256]
40 | < 100 | < 100 | < 100 | CNc1cc(Nc2cc3c(c(C4=CCNCCC4)c2F)OCC3)nc(C)c1F [Compound 257]
41 | 100 to 500 | 100 to 500 | 100 to 500 | [2H]C([2H])([2H])CNc1nc(Nc2cc3c(c(C4=CCNCCC4)c2F)OCC3)nc(C)c1F [Compound 258]
42 | 100 to 500 | < 100 | 100 to 500 | [2H]C([2H])([2H])CNc1cc(C)nc(Nc2cc3c(c(C4=CCN(C)CCC4)c2)OCCC3)n1 [Compound 259]
43 | < 100 | < 100 | < 100 | [2H]Cc1cc(NCC([2H])([2H])[2H])nc(Nc2cc3c(c(C4=CCN(C)CCC4)c2F)OCC3)n1 [Compound 260]
44 | 100 to 500 | 100 to 500 | 500 to 2000 | [2H]C([2H])([2H])CNc1nc(Nc2cc3c(c(C4=CCN(C)CCC4)c2F)OCC3)nc(C)c1F [Compound 261]
45 | < 100 | < 100 | < 100 | [2H]Cc1cc(NCC([2H])([2H])[2H])nc(Nc2cc3c(c(C4=CCNCCC4)c2F)OCC3)n1 [Compound 262]
46 | 100 to 500 | < 100 | < 100 | [2H]C([2H])([2H])CNc1cc(C)nc(Nc2cc3c(c(C4=CCNCCC4)c2)OCCC3)n1 [Compound 263]
